The nature of series [1]: Sprague-Dawley rat pharmacokinetics (IV and PO). Format: in vivo. The settings on record: male Sprague-Dawley rats, cassette mode, Method 1; for IV T1/2: IV 1 mg/kg. The text has this: BET protein inhibitors with a long half-life and good oral bioavailability in in vivo DMPK parameters are promising oral drug candidates. Some of the exemplary compounds of the current disclosure have a long half-life and good oral bioavailability in in vivo DMPK parameters in the Sprague-Dawley rat following intravenous (IV) and oral (PO) dosing. The experimental methods and results (Table 5) are provided hereinafter.
Sprague-Dawley Rat Pharmacokinetics, Method 1
Compounds were formulated in 5% DMSO, 40% PEG-400, 55% Milli-Q water at a concentration of 0.2 mg/mL for IV and at 0.5 mg/mL for PO. Two male Sprague-Dawley rats per arm were dosed with up to 5 compounds in cassette mode, which each compound being dosed at 1 mg/kg IV and 5 mg/kg PO. Blood was sampled at various timepoints and plasma isolated. 50 μL of plasma with 5 μL of blank Sprague-Dawley rat plasma were added to 200 μL of acetonitrile containing IS mixture. The samples were vortexed for 30 s. After centrifugation at 4 degrees Celsius, 3900 rpm for 15 min, the supernatant was diluted 3 times with water. 20 μL of diluted supernatant was injected into the LC/MS/MS system for quantitative analysis and concentration of analyte determined by comparison with matrix matched standard curve. WinNonlin (Phoenix™, version 8.3) or other similar software may be used for pharmacokinetic calculations.

Series [2] deals with collagen-induced arthritis in Lewis rats. Description: Collagen-induced arthritis (CIA) model in rats: body weight, paw volume, clinical scores, clinical observations. As to Detailed Clinical Scores, left forelimb: key of the grades not given here. As to Detailed Clinical Scores, left hind limb: key of the grades not given here. As to Detailed Clinical Scores, right forelimb: key of the grades not given here. As to Detailed Clinical Scores, right hind limb: key of the grades not given here. As to Detailed Clinical Scores, score: key of the grades not given here. The note with it: for Average animal paw volume percent change / Average detailed clinical score, left forelimb / Average detailed clinical score, left hind limb / Average detailed clinical score, right forelimb / Average detailed clinical score, right hind limb / Average detailed clinical score, score / Mean overall clinical score ± SD / animals showing signs of disease (of 8): CIA rats; for Mean animal paw volume (mL) ± SD: group mean, CIA + reference compound (Groups 3, 4); for animals showing signs of disease (of 8): daily P.O.

Series [3] has the same test system. Description: CIA model: histopathologic analysis of H&E-stained hind limbs. Type of series: in vivo, Lewis rat. The note with it: CIA rats.
Excerpt: Hind limbs were collected following euthanasia, with the left limb being used for H&E staining.
H&E-stained slides of designated tissues from animals were transferred to an independent pathologist for microscopic evaluation (SPFBio). Samples were assigned the histologic grades based on the severity of change from tissue where CIA was not induced. Histology grades assigned were as follows: grade 1 (minimal change), grade 2 (mild change), grade 3 (moderate change), grade 4 (marked change), and grade 5 (severe change).
Moderate inflammation was also associated with increased edema fluid, fibrin, and cellular debris. Marked mixed cell inflammation was characterized by dense, widespread accumulations of neutrophils and macrophages with lesser number of lymphocytes within one or more joint spaces, synovium and periarticular soft tissues. Marked inflammation was also associated with abundant edema fluid, fibrin, and cellular debris.
Marked granulation tissue (pannus) was associated with inflammation and was characterized by widespread fibrovascular connective tissue that expanded/replaced the periarticular soft tissues of one or more joints, extended into/expanded joint spaces, was contiguous with areas of erosion/ulcer in articular cartilage and/or increased eroded surface of bone, and variably extended along the diaphysis.
Instances of minimal increased eroded surface were not associated with fragments of bone contiguous and/or surrounded by granulation tissue. […] In some areas, increased eroded surfaces were contiguous with areas of erosion/ulcer in the articular cartilages. Instance of marked increased eroded surface were often associated with fragments of bone contiguous with and/or surrounded by granulation tissue.
This observation was typically most pronounced at joint margins (transition zone). The ulceration was often associated with inflammation and granulation tissue extending through the defect to the subchondral bone.
Marked increased periosteal bone (periosteal bone formation) was characterized by extensive areas of increased bone matrix and numerous prominent osteoblasts lining trabecular surfaces along the metaphysis and/or diaphysis of one or more bones. In some areas, increased periosteal bone was contiguous with increased eroded surface and/or erosion/ulcer at articular cartilage.

Regarding `CCNC(=O)c1cc(OC(C)c2ccc(Cl)cc2)c(C(=O)NC)[nH]1` (single isomer, unassigned) [Example 18, 3-(1-(4-chlorophenyl)ethoxy)-N^5-ethyl-N^2-methyl-1H-pyrrole-2,5-dicarboxamide], the “IV T1/2” value in series [1] amounted to 66 min. In series [1] (PO 5 mg/kg (IV 1 mg/kg)), the “PO F (%)” value was determined as 30%.
On to `CCNC(=O)c1cc(OC(C)c2ccccc2F)c(C(=O)NC)[nH]1` (single isomer, unassigned) [Example 20, N^5-ethyl-3-(1-(2-fluorophenyl)ethoxy)-N^2-methyl-1H-pyrrole-2,5-dicarboxamide], for which the “IV T1/2” value in series [1] is 24 min. Besides, in series [1] (PO 5 mg/kg (IV 1 mg/kg)), the “PO F (%)” value is recorded as 46%.
For the compound `CNC(=O)c1[nH]c(C(=O)N[C@H]2CC[C@H](O)CC2)cc1OC(C)c1ccc(Cl)cc1F` (single isomer, unassigned) [Example 38, 3-(1-(4-chloro-2-fluorophenyl)ethoxy)-N^5-(trans-4-hydroxycyclohexyl)-N^2-methyl-1H-pyrrole-2,5-dicarboxamide], in series [1], the “IV T1/2” value stood at 84 min. Further, the “PO F (%)” value in series [1] (PO 5 mg/kg (IV 1 mg/kg)) worked out at 66%.
For `CCNC(=O)c1cc(OC(C)c2ccc(Cl)cc2F)c(C(=O)NC)[nH]1` (single isomer, unassigned) [Example 41, 3-(1-(4-chloro-2-fluorophenyl)ethoxy)-N^5-ethyl-N^2-methyl-1H-pyrrole-2,5-dicarboxamide], in that order: 18 min and 69%.
In the case of `CNC(=O)c1[nH]c(C(=O)N[C@H]2CC[C@H](O)CC2)cc1OC(C)c1ccccc1` (single isomer, unassigned) [Example 98, N^5-(trans-4-hydroxycyclohexyl)-N^2-methyl-3-(1-phenylethoxy)-1H-pyrrole-2,5-dicarboxamide], the bioavailability in series [1] (rat, plasma, PO 5 mg/kg (IV 1 mg/kg), read-out: PO F (%)) was 31%.
Consider `C[C@@H]1C[C@H]2[C@@H]3CCC4=CC(=O)C=C[C@]4(C)[C@@]3(F)[C@@H](O)C[C@]2(C)[C@@]1(O)C(=O)CO` [Dex], for which the “Average animal paw volume percent change” value in series [2] (Day 0, L hind paw) is 0.00%; in series [2] (Day 0, R hind paw), 0.00%; in series [2] (Day 14, L hind paw), −4.60%. In addition, the “Mean animal paw volume (mL) ± SD” value is on record as 1.33 mL in series [2] (Day 0, L paw); 1.33 mL in series [2] (Day 0, R paw); 1.29 mL in series [2] (Day 6, L paw); 1.29 mL in series [2] (Day 6, R paw); 1.27 mL in series [2] (Day 12, L paw); 1.26 mL in series [2] (Day 12, R paw). The “Mean animal paw volume (mL) ± SD” value in series [2] (Day 13, L paw) stood at 1.28 mL; in series [2] (Day 13, R paw), 1.28 mL; in series [2] (Day 14, L paw), 1.27 mL; in series [2] (Day 14, R paw), 1.26 mL; in series [2] (Day 15, L paw), 1.26 mL; in series [2] (Day 15, R paw), 1.26 mL. Besides, the “Mean animal paw volume (mL) ± SD” value in series [2] (Day 18, L paw) is listed as 1.29 mL; in series [2] (Day 18, R paw) it was 1.29 mL; in series [2] (Day 19, L paw) it was 1.29 mL; in series [2] (Day 19, R paw), 1.28 mL; in series [2] (Day 21, L paw) it was 1.28 mL; in series [2] (Day 21, R paw) it was 1.29 mL. For the same compound, the “Average detailed clinical score, left forelimb” value in series [2] (Day 0), in series [2] (Day 6), in series [2] (Day 12), in series [2] (Day 13), in series [2] (Day 14) and in series [2] (Day 15) was 0.00 each time. For the same compound, the “Average detailed clinical score, left forelimb” value in series [2] (Day 18), in series [2] (Day 19) and in series [2] (Day 21) was 0.00 throughout. Besides, the “Average detailed clinical score, left hind limb” value in series [2] (Day 0), in series [2] (Day 6), in series [2] (Day 12), in series [2] (Day 13), in series [2] (Day 14) and in series [2] (Day 15) was 0.00 in each case. Further, the “Average detailed clinical score, left hind limb” value in series [2] (Day 18), in series [2] (Day 19) and in series [2] (Day 21) was 0.00 throughout. Moreover, the “Average detailed clinical score, right forelimb” value in series [2] (Day 0), in series [2] (Day 6), in series [2] (Day 12), in series [2] (Day 13), in series [2] (Day 14) and in series [2] (Day 15) was 0.00 throughout. The “Average detailed clinical score, right forelimb” value in series [2] (Day 18), in series [2] (Day 19) and in series [2] (Day 21) was 0.00 throughout. The “Average detailed clinical score, right hind limb” value in series [2] (Day 0), in series [2] (Day 6), in series [2] (Day 12), in series [2] (Day 13), in series [2] (Day 14) and in series [2] (Day 15) was 0.00 throughout. Also, the “Average detailed clinical score, right hind limb” value in series [2] (Day 18), in series [2] (Day 19) and in series [2] (Day 21) was 0.00 in each case. In addition, the “Average detailed clinical score, score” value in series [2] (Day 0), in series [2] (Day 6), in series [2] (Day 12), in series [2] (Day 13), in series [2] (Day 14) and in series [2] (Day 15) was 0.00 throughout. Moreover, the “Average detailed clinical score, score” value in series [2] (Day 18), in series [2] (Day 19) and in series [2] (Day 21) was 0.00 each time. Besides, the “Mean overall clinical score ± SD” value in series [2] (Day 0), in series [2] (Day 6), in series [2] (Day 12), in series [2] (Day 13), in series [2] (Day 14) and in series [2] (Day 15) was 0 ± 0 throughout. In addition, the “Mean overall clinical score ± SD” value in series [2] (Day 18), in series [2] (Day 19) and in series [2] (Day 21) was 0 ± 0 in each case.
Turning to `CNC(=O)c1cc(C(=O)NC2CC2)cn(Cc2ccccc2)c1=O` [GSK620], in series [3] (daily P.O. (Group 4)), the “erosion/ulcer in the articular cartilage” value was “mild to moderate”, the “granulation tissue (pannus)” value is listed as “mild to moderate”, the “increased eroded surface of bone (bone resorption)” value is “minimal to moderate” and the “increased periosteal bone (periosteal bone formation)” value is reported as “mild to moderate”. Also, the mixed cell inflammation entry in series [3] (daily P.O. (Group 4)) is reported as “moderate”. Also, in series [3] (daily P.O. for 21 days), the “pathologic observations after microscopic evaluation (overall)” value is “at a lower level relative to samples from animals in the CIA-induced group”. Besides, the “animals showing signs of disease (of 8)” value in series [2] (day 12) was “No animals”. The “animals showing signs of disease (of 8)” value in series [2] (day 13) is listed as 1/8. Besides, the “animals showing signs of disease (of 8)” value in series [2] (day 14) is 5/8. Also, the “animals showing signs of disease (of 8)” value in series [2] (day 15) is reported as 7/8. In addition, the “animals showing signs of disease (of 8)” value in series [2] (day 18) is “all animals”. Further, in series [2] (Day 0, CIA, per animal ID), the “Detailed Clinical Scores, left forelimb” value was 0; the “Detailed Clinical Scores, left hind limb” value was determined as 0; the “Detailed Clinical Scores, right forelimb” value is 0; the “Detailed Clinical Scores, right hind limb” value was 0. Further, the “Detailed Clinical Scores, score” value in series [2] (Day 0, CIA, per animal ID) is 0. In series [2] (Day 6, CIA, per animal ID), the “Detailed Clinical Scores, left forelimb” value is listed as 0 and the “Detailed Clinical Scores, right forelimb” value is 0. In addition, in series [2] (Day 12, CIA, per animal ID), the “Detailed Clinical Scores, left forelimb” value is given as 0 and the “Detailed Clinical Scores, right forelimb” value is 0.
